The NIST ThermoML archive (doi:10.1016/j.tca.2015.06.017)
Numbers after ± are expanded uncertainties.

Details: Liquid, Vibrating tube method

CCCCCCC [heptane]
mass density [kg/m3]
Details	283.15 K	288.15 K	293.15 K	298.15 K	303.15 K	308.15 K	313.15 K	318.15 K	323.15 K	328.15 K
100 kPa	692.57 ± 0.25	688.55 ± 0.25	684.19 ± 0.25	679.95 ± 0.25	675.68 ± 0.25	671.39 ± 0.25	667.06 ± 0.25	662.54 ± 0.25	658.32 ± 0.25	653.81 ± 0.25
2000 kPa	694.49 ± 0.27	690.28 ± 0.27	686.15 ± 0.27	682.02 ± 0.27	677.75 ± 0.27	673.45 ± 0.27	669.26 ± 0.27	664.87 ± 0.27	660.53 ± 0.28	656.27 ± 0.28
5000 kPa	697.06 ± 0.3	693.01 ± 0.3	688.99 ± 0.31	684.8 ± 0.31	680.76 ± 0.31	676.49 ± 0.31	672.35 ± 0.31	668.35 ± 0.31	664.05 ± 0.31	659.84 ± 0.32
7000 kPa	698.8 ± 0.33	694.77 ± 0.33	690.74 ± 0.33	686.68 ± 0.33	682.65 ± 0.33	678.48 ± 0.33	674.51 ± 0.34	670.32 ± 0.34	666.33 ± 0.34	661.99 ± 0.34
10000 kPa	701.2 ± 0.36	697.23 ± 0.36	693.41 ± 0.36	689.23 ± 0.37	685.52 ± 0.37	681.37 ± 0.37	677.42 ± 0.37	673.52 ± 0.37	669.41 ± 0.38	665.25 ± 0.38
20000 kPa	709.08 ± 0.47	705.18 ± 0.47	701.57 ± 0.48	697.65 ± 0.48	694.07 ± 0.48	690.12 ± 0.49	686.53 ± 0.49	682.85 ± 0.49	679.17 ± 0.5	675.25 ± 0.5
30000 kPa	716.12 ± 0.57	712.38 ± 0.58	708.99 ± 0.58	705.17 ± 0.59	701.86 ± 0.59	698.22 ± 0.6	694.65 ± 0.6	691.31 ± 0.6	687.64 ± 0.61	684.02 ± 0.61
40000 kPa	722.63 ± 0.67	719.01 ± 0.68	715.7 ± 0.68	712.11 ± 0.69	708.87 ± 0.69	705.32 ± 0.7	702.08 ± 0.71	698.89 ± 0.71	695.38 ± 0.72	691.84 ± 0.72
50000 kPa	728.63 ± 0.77	725.2 ± 0.77	722.03 ± 0.78	718.54 ± 0.79	715.5 ± 0.79	712.12 ± 0.8	708.98 ± 0.81	705.82 ± 0.81	702.5 ± 0.82	699.13 ± 0.83
60000 kPa	734.33 ± 0.86	731.01 ± 0.87	728.02 ± 0.87	724.73 ± 0.88	721.67 ± 0.89	718.41 ± 0.9	715.39 ± 0.9	712.36 ± 0.91	709.15 ± 0.92	706.05 ± 0.93
65000 kPa	736.99 ± 0.9	733.73 ± 0.91	730.72 ± 0.92	727.65 ± 0.93	724.56 ± 0.93	721.43 ± 0.94	718.32 ± 0.95	715.32 ± 0.96	712.32 ± 0.97	709.3 ± 0.97
